Structures can show the parent of a compound that is named as a salt.
How the values were obtained:
[1] = test system: Hela cells; assay: Autophagy-inducing activities in Hela cells (Autophagy Detection Kit); type: cell-based
Description: The autophagy-inducing activities of the compounds of the present invention were measured in Hela cells (Korean Cell Line Bank), using the Autophagy Detection Kit (ab139484, Abcam), according to the manufacturer's instructions. Specifically, 100 μL of EBSS (Earle's Balanced Salt Solution, WELGENE (LB 002-03)) containing 10% fetal bovine serum (FBS) was added to each well of a 96-well plate. Hela cells (1×10^4 cells) were added to each well and then incubated overnight at 37° C. in a CO2 incubator so as to stabilize the cells. The medium of each well containing the stabilized cells was replaced with a medium obtained by adding 10 nM or 100 nM of the compounds prepared in Examples (test compounds) to a EBSS containing 10% FBS. As a positive control, rapamycin was dissolved in dimethyl sulfoxide and then treated at a concentration of 500 nM per well. After the treatments, the cells were incubated at 37° C. in a CO2 incubator for 4 hours or 24 hours and then washed twice with the 1× assay buffer (prepared by adding 9 mL of distilled water to the 10× assay buffer). EBSS containing 5% fetal bovine serum, 1 μL/ml of Green detection reagent and 1 μL/ml of Nuclear stain was added thereto in the amount of 100 μL per well. The cells were incubated for 1 hour at 37° C. in a CO2 incubator and then washed twice with the 1× assay buffer. The absorbance values were measured at 488 nm, using a microplate reader (Cytation 3). The tests were repeated four times.
The absorbance values, which were obtained by treating Hela cells with the test compounds (100 nM) and the positive control (rapamycin, 500 nM) and then incubating for 4 hours as described in above, are shown in Table 1 below. And also, the absorbance values, which were obtained by treating Hela cells with the test compounds (10 nM or 100 nM) and the positive control (rapamycin, 500 nM) and then incubating for 24 hours as described in above, are shown in Table 2 below.

[2] = test system: dimethylnitrosamine (DMN)-induced liver injury male SD rats; assay: Liver function-improving activities by oral administration in the liver injury model (1), 3 weeks; type: in vivo, rat; details: serum, 25 mg/kg oral once a day
From the text: The compounds according to the present invention were orally administered to dimethylnitrosamine (DMN)-induced liver injury male SD rats for 3 weeks, so as to evaluate liver function-improving activities. Specifically, 7-week-old male SD rats (Orient Bio, Korea) were accommodated to the laboratory environment at room temperature for 7 days. General symptoms were observed and then only healthy animals were used for the experiment. The rats were divided into 9 groups (n=5 for each group), the normal control group, the group to which only DMN is administered, and the groups to which both the compound of the present invention (the compounds of Example 2, 5, 6, 9, 10, 20 or 21) and DMN are administered. DMN was dissolved in purified water and then administered intraperitoneally at the dose of 10 mg/kg for 3 consecutive weeks (3 times per week, for 4 weeks). Blood samples were collected on Day 3 after the completion of the first-week liver injury inducement and then the ALT (Alanine Transaminase) values and the AST (Aspartate Transaminase) values were measured so as to confirm the liver injury thereof. The compounds of the present invention were administered for 3 weeks, i.e., from Day 4 after the completion of the first-week liver injury inducement to the DMN-administering period. The seven compounds of the present invention were dissolved in purified water or corn oil and then orally administered, using an oral sonde, at the dose of 25 mg/kg once a day for 3 weeks. Blood samples were collected on Day 0 (3 days after the completion of the first-week liver injury inducement) and Day 7, 14 and 21 after the administration of the test compounds. The collected blood was injected into a vacutainer tube containing a clot activator and then allowed to stand at room temperature for about 20 minutes so as to coagulate each blood sample. After centrifugation for 10 minutes, the resulting serums were subjected to blood-biochemical tests.

[3] = test compound 10 nM, incubation for 24 hours
[4] = test compound 100 nM, incubation for 4 hours
[5] = test compound 100 nM, incubation for 24 hours
[6] = 0 week (Day 0, before administration of test compound)

## CCN(CC)CCOc1ccc(-c2ccc(C(=S)N3CCN(C)CC3)s2)cc1OC.Cl.Cl [Example 4, N-(4-methylpiperazino)-5-(4-(2-diethylamino)ethoxy-3-methoxyphenyl)thiophene-2-thiocarboxamide hydrochloride]
[1]; [3]
  Absorbance (at 488 nm): 1691.3
[1]; [4]
  Absorbance (at 488 nm): 1580.6
[1]; [5]
  Absorbance (at 488 nm): 1618.3

## COc1cc(-c2ccc(C(=O)N3CCN(C)CC3)s2)ccc1O [Example 1, hydrochloride]
[1]; [3]
  Absorbance (at 488 nm): 1617.3
[1]; [4]
  Absorbance (at 488 nm): 1321.2
[1]; [5]
  Absorbance (at 488 nm): 1660.3

## COc1cc(-c2ccc(C(=O)NCCN(C(C)C)C(C)C)s2)ccc1O.Cl [Example 5, N-(2-(diisopropylamino)ethyl)-5-(4-hydroxy-3-methoxyphenyl)thiophene-2-carboxamide hydrochloride]
[2]; [6]
  ALT values (average value): 68.90 U/L
  AST values (average value): 137.66 U/L
[2]; 1 week
  ALT values (average value): 96.60 U/L
  AST values (average value): 187.26 U/L
[2]; 2 weeks
  ALT values (average value): 108.80 U/L
  AST values (average value): 219.66 U/L
[2]; 3 weeks
  ALT values (average value): 111.00 U/L
  AST values (average value): 234.22 U/L
[1]; [3]
  Absorbance (at 488 nm): 1557.3
[1]; [4]
  Absorbance (at 488 nm): 1348.0
[1]; [5]
  Absorbance (at 488 nm): 1618.3

## CCN(CC)CCOc1ccc(-c2ccc(C(=O)NC(C)C)s2)cc1OC.Cl [Example 9, N-isopropyl-5-(4-(2-diethylamino)ethoxy-3-methoxyphenyl)thiophene-2-carboxamide hydrochloride]
[2]; [6]
  ALT values (average value): 67.64 U/L
  AST values (average value): 140.64 U/L
[2]; 1 week
  ALT values (average value): 103.78 U/L
  AST values (average value): 220.58 U/L
[2]; 2 weeks
  ALT values (average value): 111.80 U/L
  AST values (average value): 241.06 U/L
[2]; 3 weeks
  ALT values (average value): 117.92 U/L
  AST values (average value): 222.50 U/L
[1]; [3]
  Absorbance (at 488 nm): 1594.0
[1]; [4]
  Absorbance (at 488 nm): 1320.2
[1]; [5]
  Absorbance (at 488 nm): 1951.7

## COc1cc(-c2ccc(C(=O)NCC3(N(C)C)CCOCC3)s2)ccc1O.Cl [Example 20, N-((4-(dimethylamino)tetrahydro-2H-pyran-4-yl)methyl)-5-(4-hydroxy-3-methoxyphenyl)thiophene-2-carboxamide hydrochloride]
[2]; [6]
  ALT values (average value): 69.80 U/L
  AST values (average value): 136.28 U/L
[2]; 1 week
  ALT values (average value): 87.26 U/L
  AST values (average value): 194.88 U/L
[2]; 2 weeks
  ALT values (average value): 104.34 U/L
  AST values (average value): 209.56 U/L
[2]; 3 weeks
  ALT values (average value): 116.14 U/L
  AST values (average value): 229.74 U/L

## COc1cc(-c2ccc(C(=S)N3CCN(C)CC3)s2)ccc1O [Example 3, N-(4-methylpiperazino)-5-(4-hydroxy-3-methoxyphenyl)thiophene-2-thiocarboxamide hydrochloride]
[1]; [3]
  Absorbance (at 488 nm): 1576.3
[1]; [4]
  Absorbance (at 488 nm): 1193.8
[1]; [5]
  Absorbance (at 488 nm): 1754.3

## CCN(CC)CCOc1ccc(-c2ccc(C(=O)N3CCN(C)CC3)s2)cc1OC.Cl.Cl [Example 2, N-(4-methylpiperazino)-5-(4-(2-diethylamino)ethoxy-3-methoxyphenyl)thiophene-2-carboxamide hydrochloride]
[2]; [6]
  ALT values (average value): 67.24 U/L
  AST values (average value): 143.32 U/L
[2]; 1 week
  ALT values (average value): 101.70 U/L
  AST values (average value): 210.86 U/L
[2]; 2 weeks
  ALT values (average value): 113.22 U/L
  AST values (average value): 223.88 U/L
[2]; 3 weeks
  ALT values (average value): 126.10 U/L
  AST values (average value): 250.76 U/L
[1]; [3]
  Absorbance (at 488 nm): 1829.3
[1]; [4]
  Absorbance (at 488 nm): 1460.5
[1]; [5]
  Absorbance (at 488 nm): 1866.3

## COc1cc(-c2ccc(C(=S)NC(C)C)s2)ccc1O [Example 11, N-isopropyl-5-(4-hydroxy-3-methoxyphenyl)thiophene-2-thiocarboxamide]
[1]; [3]
  Absorbance (at 488 nm): 1459.7
[1]; [4]
  Absorbance (at 488 nm): 1268.4
[1]; [5]
  Absorbance (at 488 nm): 1731.0

## CCN(CC)CCOc1ccc(-c2ccc(C(=O)NCCN(C(C)C)C(C)C)s2)cc1OC.Cl.Cl [Example 6, N-(2-(diisopropylamino)ethyl)-5-(4-(2-diethylamino)ethoxy-3-methoxyphenyl)thiophene-2-carboxamide hydrochloride]
[2]; [6]
  ALT values (average value): 68.02 U/L
  AST values (average value): 141.78 U/L
[2]; 1 week
  ALT values (average value): 80.46 U/L
  AST values (average value): 220.86 U/L
[2]; 2 weeks
  ALT values (average value): 98.94 U/L
  AST values (average value): 215.42 U/L
[2]; 3 weeks
  ALT values (average value): 109.80 U/L
  AST values (average value): 249.56 U/L
[1]; [3]
  Absorbance (at 488 nm): 1784.6
[1]; [4]
  Absorbance (at 488 nm): 1670.5
[1]; [5]
  Absorbance (at 488 nm): 1893.7

## COc1cc(-c2ccc(C(=S)NCCN(C(C)C)C(C)C)s2)ccc1O.Cl [Example 7, N-(2-(diisopropylamino)ethyl)-5-(4-hydroxy-3-methoxyphenyl)thiophene-2-thiocarboxamide hydrochloride]
[1]; [3]
  Absorbance (at 488 nm): 1598.5
[1]; [4]
  Absorbance (at 488 nm): 1325.5
[1]; [5]
  Absorbance (at 488 nm): 1605.5

## CCN(CC)CCOc1ccc(-c2ccc(C(=S)NCCN(C(C)C)C(C)C)s2)cc1OC.Cl.Cl [Example 8, N-(2-(diisopropylamino)ethyl)-5-(4-(2-diethylamino)ethoxy-3-methoxyphenyl)thiophene-2-thiocarboxamide hydrochloride]
[1]; [3]
  Absorbance (at 488 nm): 1586.3
[1]; [4]
  Absorbance (at 488 nm): 1315.2
[1]; [5]
  Absorbance (at 488 nm): 1612.3

## CO[C@H]1C[C@@H]2CC[C@@H](C)[C@@](O)(O2)C(=O)C(=O)N2CCCC[C@H]2C(=O)O[C@H]([C@H](C)C[C@@H]2CC[C@@H](O)[C@H](OC)C2)CC(=O)[C@H](C)/C=C(\C)[C@@H](O)[C@@H](OC)C(=O)[C@H](C)C[C@H](C)/C=C/C=C/C=C/1C [Rapamycin, rapamycin, reference compound]
[1]; positive control 500 nM, incubation for 4 hours
  Absorbance (at 488 nm): 1306.2
[1]; positive control 500 nM, incubation for 24 hours
  Absorbance (at 488 nm): 1594.2

From patent publication US12110281B2, “Catechol derivatives or salt thereof, processes for preparing the same, and pharmaceutical compositions comprising the same” (HEXAPHARMATEC CO., LTD., priority 2018, dated 2024)
